Key:
[1] = system: antibodies in sera from SARS patients (sera 1a, 1b, 2, 6, 37, 62, London, SARS-yellow, SARS-green); assay type: binding, human; parameters: Binding of serum 6 to linear peptides of protein X1 of SARS-CoV Urbani / Binding of serum 37 to linear peptides of protein X1 of SARS-CoV Urbani / Binding of serum 6 to looped/cyclic peptide (PEPSCAN-ELISA) / Binding of serum 37 to looped/cyclic peptide (PEPSCAN-ELISA) / Binding of serum 37 to looped/cyclic peptides of protein X1 of SARS-CoV Urbani / Binding of serum 6 to linear peptides of protein X2 / Binding of serum 37 to linear peptides of protein X2 / Binding of serum 37 to looped/cyclic peptides of protein X2 of SARS-CoV Urbani / Binding of serum 6 to linear peptides of protein M of SARS-CoV Urbani / Binding of serum 37 to linear peptides of protein M of SARS-CoV Urbani / Binding of serum 6 to looped/cyclic peptides of protein M of SARS-CoV Urbani / Binding of serum 37 to looped/cyclic peptides of protein M of SARS-CoV Urbani / Binding of serum 6 to linear peptides of protein X3 of SARS-CoV Urbani / Binding of serum 37 to linear peptides of protein X3 of SARS-CoV Urbani / Binding of serum 37 to looped/cyclic peptides of protein X3 of SARS-CoV Urbani / Binding of serum 6 to linear peptides of protein X4 of SARS-CoV Urbani / Binding of serum 37 to linear peptides of protein X4 of SARS-CoV Urbani / Binding of serum 37 to looped/cyclic peptides of protein X4 of SARS-CoV Urbani / Binding of serum 6 to linear peptides of protein X5 of SARS-CoV Urbani / Binding of serum 37 to linear peptides of protein X5 of SARS-CoV Urbani / Binding of serum 37 to looped/cyclic peptides of protein X5 of SARS-CoV Urbani / Binding of serum 6 to linear peptides of protein N of SARS-CoV Urbani / Binding of serum 37 to linear peptides of protein N of SARS-CoV Urbani / Binding of serum 6 to linear peptide (PEPSCAN-ELISA) / Binding of serum 1a to looped/cyclic peptides of protein N of SARS-CoV Urbani / Binding of serum 1b to looped/cyclic peptides of protein N of SARS-CoV Urbani / Binding of serum 2 to looped/cyclic peptides of protein N of SARS-CoV Urbani / Binding of serum 6 to looped/cyclic peptides of protein N of SARS-CoV Urbani / Binding of serum 37 to looped/cyclic peptides of protein N of SARS-CoV Urbani / Binding of serum 62 to looped/cyclic peptides of protein N of SARS-CoV Urbani / Binding of serum London to looped/cyclic peptides of protein N of SARS-CoV Urbani / Binding of serum SARS-green to looped/cyclic peptides of protein N of SARS-CoV Urbani: unit not given here
[2] = system: control sera (pooled serum of ten healthy LUMC hospital workers; commercial negative donor pooled serum from the Dutch bloodbank); assay type: binding, human; parameters: Binding of Control serum LUMC to linear peptides / Binding of Control serum Blood-bank to linear peptides / Binding of Control serum LUMC to looped peptides / Binding of Control Serum Blood-Bank to Looped peptides / Binding of Control serum LUMC to linear peptides of the protein M of SARS-CoV Urbani / Binding of Control serum Blood-bank to linear peptides of the protein M of SARS-CoV Urbani / Binding of Control serum LUMC to looped peptides of the protein M of SARS-CoV Urbani / Binding of Control Serum Blood-Bank to Looped peptides of the protein M of SARS-CoV Urbani: unit not given here
[3] = system: rabbit serum obtained by immunizing a rabbit with the SARS-CoV strain Frankfurt 1; assay type: binding; parameters: Binding of a rabbit serum to linear peptides / Binding of a rabbit serum to looped peptides / Rabbit serum linear peptides / Rabbit serum looped peptides / Binding of a rabbit serum to linear peptides of protein N of SARS-CoV Urbani (Rabbit serum linear peptides) / Binding of a rabbit serum to looped/cyclic peptides of protein N of SARS-CoV Urbani (Rabbit serum looped peptides): unit not given here

SPLFLIVAALVFLIL
Binding of serum 1a to linear peptides of protein X4 of SARS-CoV Urbani [1]: 0.6
Binding of serum 1a to looped/cyclic peptides of protein X4 of SARS-CoV Urbani [1]: 0.6
Binding of serum 1b to linear peptides of protein X4 of SARS-CoV Urbani [1]: 0.2
Binding of serum 1b to looped/cyclic peptides of protein X4 of SARS-CoV Urbani [1]: 0.4
Binding of serum 2 to linear peptides of protein X4 of SARS-CoV Urbani [1]: 0.5
Binding of serum 2 to looped/cyclic peptides of protein X4 of SARS-CoV Urbani [1]: 0.7
Binding of serum 6 to linear peptides of protein X4 of SARS-CoV Urbani [1]: 0.2
Binding of serum 6 to looped/cyclic peptides of protein X4 of SARS-CoV Urbani [1]: 0.3
Binding of serum 37 to linear peptides of protein X4 of SARS-CoV Urbani [1]: 0.6
Binding of serum 37 to looped/cyclic peptides of protein X4 of SARS-CoV Urbani [1]: 0.7
Binding of serum 62 to linear peptides of protein X4 of SARS-CoV Urbani [1]: 0.6
Binding of serum 62 to looped/cyclic peptides of protein X4 of SARS-CoV Urbani [1]: 0.2
Binding of serum London to linear peptides of protein X4 of SARS-CoV Urbani [1]: 0.6
Binding of serum London to looped/cyclic peptides of protein X4 of SARS-CoV Urbani [1]: 0.4
Binding of serum SARS-green to linear peptides of protein X4 of SARS-CoV Urbani [1]: 0.5
Binding of serum SARS-green to looped/cyclic peptides of protein X4 of SARS-CoV Urbani [1]: 0.6
Binding of serum SARS-yellow to linear peptides of protein X4 of SARS-CoV Urbani [1]: 0.3
Binding of serum SARS-yellow to looped/cyclic peptides of protein X4 of SARS-CoV Urbani [1]: 0.3
Binding of Control Serum Blood-Bank to Looped peptides [2]: 0.3
Binding of Control serum Blood-bank to linear peptides [2]: 0.4
Binding of Control serum LUMC to linear peptides [2]: 0.3
Binding of Control serum LUMC to looped peptides [2]: 0.5
Rabbit serum linear peptides [3]: 0.5
Rabbit serum looped peptides [3]: 0.8

SHLLLVAAGMEAQFL
Binding of serum 1a to linear peptides of protein X1 of SARS-CoV Urbani [1]: 0.8
Binding of serum 1a to looped/cyclic peptide (PEPSCAN-ELISA) [1]: 0.2
Binding of serum 1b to linear peptides of protein X1 of SARS-CoV Urbani [1]: 0.7
Binding of serum 1b to looped/cyclic peptide (PEPSCAN-ELISA) [1]: 0.5
Binding of serum 2 to linear peptides of protein X1 of SARS-CoV Urbani [1]: 0.7
Binding of serum 2 to looped/cyclic peptide (PEPSCAN-ELISA) [1]: 0.1
Binding of serum 6 to linear peptides of protein X1 of SARS-CoV Urbani [1]: 0.6
Binding of serum 6 to looped/cyclic peptide (PEPSCAN-ELISA) [1]: 0.1
Binding of serum 37 to linear peptides of protein X1 of SARS-CoV Urbani [1]: 0.8
Binding of serum 37 to looped/cyclic peptide (PEPSCAN-ELISA) [1]: 0.1
Binding of serum 62 to linear peptides of protein X1 of SARS-CoV Urbani [1]: 0.8
Binding of serum 62 to looped/cyclic peptide (PEPSCAN-ELISA) [1]: 0.2
Binding of serum London to linear peptides of protein X1 of SARS-CoV Urbani [1]: 0.3
Binding of serum London to looped/cyclic peptide (PEPSCAN-ELISA) [1]: 0.1
Binding of serum SARS-green to linear peptides of protein X1 of SARS-CoV Urbani [1]: 0.3
Binding of serum SARS-green to looped/cyclic peptide (PEPSCAN-ELISA) [1]: 0.5
Binding of serum SARS-yellow to linear peptides of protein X1 of SARS-CoV Urbani [1]: 0.7
Binding of serum SARS-yellow to looped/cyclic peptide (PEPSCAN-ELISA) [1]: 0.0
Binding of Control Serum Blood-Bank to Looped peptides [2]: 0.4
Binding of Control serum Blood-bank to linear peptides [2]: 0.7
Binding of Control serum LUMC to linear peptides [2]: 0.7
Binding of Control serum LUMC to looped peptides [2]: 0.2
Binding of a rabbit serum to linear peptides [3]: 0.5
Binding of a rabbit serum to looped peptides [3]: 0.0

LGKVLPFHRWHTMVQ
Binding of serum 1a to linear peptides of protein X5 of SARS-CoV Urbani [1]: 0.7
Binding of serum 1a to looped/cyclic peptides of protein X5 of SARS-CoV Urbani [1]: 0.6
Binding of serum 1b to linear peptides of protein X5 of SARS-CoV Urbani [1]: 0.4
Binding of serum 1b to looped/cyclic peptides of protein X5 of SARS-CoV Urbani [1]: 0.3
Binding of serum 2 to linear peptides of protein X5 of SARS-CoV Urbani [1]: 0.6
Binding of serum 2 to looped/cyclic peptides of protein X5 of SARS-CoV Urbani [1]: 0.2
Binding of serum 6 to linear peptides of protein X5 of SARS-CoV Urbani [1]: 0.5
Binding of serum 6 to looped/cyclic peptides of protein X5 of SARS-CoV Urbani [1]: 0.3
Binding of serum 37 to linear peptides of protein X5 of SARS-CoV Urbani [1]: 0.6
Binding of serum 37 to looped/cyclic peptides of protein X5 of SARS-CoV Urbani [1]: 0.5
Binding of serum 62 to linear peptides of protein X5 of SARS-CoV Urbani [1]: 0.6
Binding of serum 62 to looped/cyclic peptides of protein X5 of SARS-CoV Urbani [1]: 0.3
Binding of serum London to linear peptides of protein X5 of SARS-CoV Urbani [1]: 0.6
Binding of serum London to looped/cyclic peptides of protein X5 of SARS-CoV Urbani [1]: 0.2
Binding of serum SARS-green to linear peptides of protein X5 of SARS-CoV Urbani [1]: 0.4
Binding of serum SARS-green to looped/cyclic peptides of protein X5 of SARS-CoV Urbani [1]: 0.2
Binding of serum SARS-yellow to linear peptides of protein X5 of SARS-CoV Urbani [1]: 0.2
Binding of serum SARS-yellow to looped/cyclic peptides of protein X5 of SARS-CoV Urbani [1]: 0.2
Binding of Control Serum Blood-Bank to Looped peptides [2]: 0.4
Binding of Control serum Blood-bank to linear peptides [2]: 0.8
Binding of Control serum LUMC to linear peptides [2]: 0.5
Binding of Control serum LUMC to looped peptides [2]: 0.4
Rabbit serum linear peptides [3]: 0.5
Rabbit serum looped peptides [3]: 0.3

RGTIVTRPLMESELV
Binding of serum 1a to linear peptides of protein M of SARS-CoV Urbani [1]: 0.9
Binding of serum 1b to linear peptides of protein M of SARS-CoV Urbani [1]: 0.6
Binding of serum 2 to linear peptides of protein M of SARS-CoV Urbani [1]: 0.6
Binding of serum 6 to linear peptides of protein M of SARS-CoV Urbani [1]: 0.4
Binding of serum 37 to linear peptides of protein M of SARS-CoV Urbani [1]: 0.9
Binding of serum 62 to linear peptides of protein M of SARS-CoV Urbani [1]: 0.9
Binding of serum London to linear peptides of protein M of SARS-CoV Urbani [1]: 0.3
Binding of serum SARS-green to linear peptides of protein M of SARS-CoV Urbani [1]: 0.3
Binding of serum SARS-yellow to linear peptides of protein M of SARS-CoV Urbani [1]: 0.1
Recognition of the peptide by sera of SARS-CoV infected individuals, and form (linear, looped/cyclic) in which it is recognized [1]: recognized in looped/cyclic form
Binding of Control Serum Blood-Bank to Looped peptides of the protein M of SARS-CoV Urbani [2]: 0.6
Binding of Control serum Blood-bank to linear peptides of the protein M of SARS-CoV Urbani [2]: 0.7
Binding of Control serum LUMC to linear peptides of the protein M of SARS-CoV Urbani [2]: 0.4
Binding of Control serum LUMC to looped peptides of the protein M of SARS-CoV Urbani [2]: 0.8
Rabbit serum linear peptides [3]: 0.3
Rabbit serum looped peptides [3]: 0.3

MCKYTQSTALQELLI
Binding of serum 1a to linear peptides of protein X2 [1]: 0.8
Binding of serum 1a to looped/cyclic peptides of protein X2 of SARS-CoV Urbani [1]: 0.6
Binding of serum 1b to linear peptides of protein X2 [1]: 0.7
Binding of serum 1b to looped/cyclic peptides of protein X2 of SARS-CoV Urbani [1]: 0.6
Binding of serum 2 to linear peptides of protein X2 [1]: 0.6
Binding of serum 2 to looped/cyclic peptides of protein X2 of SARS-CoV Urbani [1]: 0.5
Binding of serum 6 to linear peptides of protein X2 [1]: 0.5
Binding of serum 6 to looped/cyclic peptides of protein X2 of SARS-CoV Urbani [1]: 0.3
Binding of serum 37 to linear peptides of protein X2 [1]: 0.6
Binding of serum 37 to looped/cyclic peptides of protein X2 of SARS-CoV Urbani [1]: 0.7
Binding of serum 62 to linear peptides of protein X2 [1]: 0.8
Binding of serum 62 to looped/cyclic peptides of protein X2 of SARS-CoV Urbani [1]: 0.8
Binding of serum London to linear peptides of protein X2 [1]: 0.5
Binding of serum London to looped/cyclic peptides of protein X2 of SARS-CoV Urbani [1]: 0.2
Binding of serum SARS-green to linear peptides of protein X2 [1]: 0.8
Binding of serum SARS-green to looped/cyclic peptides of protein X2 of SARS-CoV Urbani [1]: 0.7
Binding of serum SARS-yellow to linear peptides of protein X2 [1]: 0.7
Binding of serum SARS-yellow to looped/cyclic peptides of protein X2 of SARS-CoV Urbani [1]: 0.4
Binding of Control Serum Blood-Bank to Looped peptides [2]: 0.8
Binding of Control serum Blood-bank to linear peptides [2]: 0.9
Binding of Control serum LUMC to linear peptides [2]: 0.7
Binding of Control serum LUMC to looped peptides [2]: 0.7
Binding of a rabbit serum to linear peptides [3]: 0.2
Binding of a rabbit serum to looped peptides [3]: 0.4
